# Several values for one entry are separate records, joined by “and”; a condition that tells them apart may be missing. Equal values may be shown once. Read-outs that look alike come from different tables or passages of the source.
# Assays:
# [1] = test system: circulating tumour cells (CTCs) in the blood; details: in vitro; tumour cells in blood of 13 patients (breast, colon, prostate, pancreas cancer); MAINTRAC
# Source text: This method allows the detection of smallest amounts of tumour cells in blood and other body fluids (Pachmann K., Clement J. H., Schneider C.-P., Willen B., Camara O., Pachmann U., Hoeffken K., Standardized quantification of circulating peripheral tumour cells from lung and breast cancer. Clin. Chem. Lab-Med., 2005, 43; 617-627).
# [2] = test system: circulating tumour cells (CTCs)
# Description: (§1) Depending on the dose, the infusion therapy was applied for 3-5 hours.
# [3] = test system: leukocytes / dysfunctional leukocyte precursors
# Description: as §1
# [4] = Clinical observation of patients during and after choline infusion therapy (vital parameters, tolerability, condition)
# [5] = Gastric CA, one i.v. choline therapy for 3 to 5 hours, MainTrac
# [6] = Histiocytoma, one i.v. choline therapy for 3 to 5 hours, MainTrac
# [7] = Prostate CA, one i.v. choline therapy for 3 to 5 hours, MainTrac
# [8] = mean over all tumour types of Table 1, one i.v. choline therapy for 3 to 5 hours, MainTrac
# [9] = mean of Table 2 leukaemia measurements, one i.v. choline therapy for 3 to 5 hours
smiles,measurement,setting,value
C[N+](C)(C)CCO [choline],cytosensitivity to choline,[1],up to 95%
same,CTCs after therapy,"[2]; Gastric CA, after one i.v. choline therapy for 3 to 5 hours, MainTrac",1.75 million tumour cells
same,CTCs After − before Difference (Δ),[2]; [5],−12.25 million tumour cells
same,CTCs After − before Δ % before,[2]; [5],−87.00%
same,CTCs after therapy,"[2]; Histiocytoma, after one i.v. choline therapy for 3 to 5 hours, MainTrac",65.00 million tumour cells
same,CTCs After − before Difference (Δ),[2]; [6],−307.50 million tumour cells
same,CTCs After − before Δ % before,[2]; [6],−82.00%
same,CTCs after therapy,"[2]; Pancreas CA, after one i.v. choline therapy for 3 to 5 hours, MainTrac",3.00 million tumour cells and 2.75 million tumour cells
same,CTCs after therapy,"[2]; Prostate CA, after one i.v. choline therapy for 3 to 5 hours, MainTrac",8.75 million tumour cells
same,CTCs After − before Difference (Δ),[2]; [7],−3.75 million tumour cells
same,CTCs After − before Δ % before,[2]; [7],−30.00%
same,"After − before Δ% before (after 4 weeks), mean values","[2]; Table 3 mean of leukaemia patient leukocytes and breast cancer patient CTCs, 4 weeks later",−40.00%
same,"After − before Δ% before, mean values","[2]; Table 3 mean of leukaemia patient leukocytes and breast cancer patient CTCs, directly after therapy",−30.00%
same,"MainTrac (CTCs), After 4 weeks value","[2]; breast cancer patient, after another 4 weeks without therapy",5.25 million tumour cells
same,"MainTrac (CTCs), After − before Δ% before (after 4 weeks)","[2]; breast cancer patient, after another 4 weeks without therapy, relative to initial value",−72.00%
same,"CTCs after therapy, mean value","[2]; mean over all tumour types of Table 1, after one i.v. choline therapy for 3 to 5 hours, MainTrac",9.75 million tumour cells
same,"CTCs After − before Difference (Δ), mean value",[2]; [8],−37 million tumour cells and −37.00 million tumour cells
same,"CTCs After − before Δ % before, mean value",[2]; [8],−54.6%
same,"Leukocytes, After 4 weeks value","[3]; leukaemia patient blood, 4 weeks after one i.v. choline therapy",281.60
same,"Leukocytes, After − before Δ% before (after 4 weeks)","[3]; leukaemia patient blood, 4 weeks after one i.v. choline therapy, compared to the initial value",−8%
same,"Leukocytes after therapy, mean values","[3]; mean of Table 2 leukaemia measurements, after one i.v. choline therapy for 3 to 5 hours",228.53
same,"Leukocytes After − before Difference (Δ), mean values",[3]; [9],−25.77
same,"Leukocytes After − before Δ % before, mean values",[3]; [9],−10.00%
same,"changes in vital parameters (RR, pulse, SO2, ECG, temperature)","[4]; 9 tumour patients, during and subsequent to i.v. infusion therapy of 3-5 hours",no patient showed relevant changes in the vital parameters
same,tolerability of the infusion therapy,"[4]; 9 tumour patients, i.v. infusion for 3-5 hours",very well tolerated
same,side effects,"[4]; in some cases, on the following day, in general only during few hours, depending on the dose",nausea and increased temperature

# Source: patent US20130058922A1 (priority 2009, published 2013)
